In ChEMBL document CHEMBL2163239, “Inhibitors of human immunodeficiency virus type 1 (HIV-1) attachment 6. Preclinical and human pharmacokinetic profiling of BMS-663749, a phosphonooxymethyl prodrug of the HIV-1 attachment inhibitor 2-(4-benzoyl-1-piperazinyl)-1-(4,7-dimethoxy-1H-pyrrolo[2,3-c]pyridin-3-yl)-2-oxoethanone …” (J Med Chem, 2012):
Activity calls are given as the source filed them. No cut-off for these calls is given here.

Experiments:
Homo sapiens = assay: Toxicity in HIV 1-infected human assessed as adverse events at 1800 mg, po bid for 8 days measured upto 14 days; type: organism-based; settings: in vivo
[1] = Cmax in high fat fed healthy human at 800 mg, po administered as capsule with high fat meal; type: ADME, organism-based; design: dose 800 mg, route oral; settings: in vivo
[2] = Plasma concentration in high fat fed healthy human at 800 mg, po administered as capsule with high fat meal measured after 12 hrs; type: ADME, organism-based
[3] = Permeability across human Caco2 cells at pH 6.5; type: ADME, cell-based; settings: Caco-2, pH 6.5, read-out: permeability
[4] = Tmax in high fat fed healthy human at 800 mg, po administered as capsule with high fat meal; type: ADME, organism-based; settings: in vivo
[5] = test system: Human immunodeficiency virus 1; assay: Antiviral activity against HIV 1-infected human assessed as reduction in viral load at 1800 mg, po bid for 8 days measured upto 14 days; type: functional, organism-based
[6] = Half life in high fat fed healthy human at 800 mg, po administered as capsule with high fat meal; type: ADME, organism-based; settings: in vivo
[7] = Lipophilicity, log P of compound in octanol-PBS mixture at pH 6.5 by HPLC-UV analysis; type: physicochemical
[8] = AUC (infinity) in high fat fed healthy human at 800 mg, po administered as capsule with high fat meal; type: ADME, organism-based; design: dose 800 mg, time infinity, route oral; settings: plasma
[9] = Dissociation constant, pKa of compound; type: physicochemical

Cmax [1]: 4100 ng/mL
concentration at 12 h [2]: 175 ng/mL
Papp [3]: > 10 ×10⁻⁶ cm/s
Tmax [4]: 4 h
half-life [6]: 14 h
logD [7]: 1.5
AUC(0-inf) [8]: 21200 ng·h/mL
pKa [9]: 2.6
Structure (SMILES): COc1ncc(OC)c2c(C(=O)C(=O)N3CCN(C(=O)c4ccccc4)CC3)c[nH]c12
Activity (Homo sapiens): Non-toxic
Activity [5]: Active
